From US11617777B2, “Cytotoxic and anti-mitotic compounds, and methods of using the same” (ZYMEWORKS BC INC., priority 2013, dated 2023)
Where two headings read alike, the source gives them in different places.

How the values were obtained:
Test in all cases: Cytotoxicity of compounds, CellTiter-Glo
[1] = test system: HPAF-II; type: cell-based; conditions: Homo sapiens, Table 5, read-out: Cytotoxicity (EC50) HPAF-II
From the text: (§1) FIG. 1 summarizes the data for compounds A, B, C, D, and E when tested using the Human mammary carcinoma cell line HCC1954 or Human T-cell leukemia cell line Jurkat. FIGS. 2-6 show the cytotoxicity data plots for individual compounds A-E. Tables 2-6 summarize the results of additional cytotoxicity assays.
(§2) Cell lines used: Human T-cell leukemia cell line Jurkat (ATCC: TIB-152); HCC1954 (ATCC: CRL. 2338); Human Pancreatic cells lines: AsPC-1 (ATCC: CRL-1682), BxPC-3 (ATCC: CRL.1687), HPAF-II (ATCC: CRL.1997), MiaPaCa2 (ATCC: CRL.1420), PANC-1 (ATCC: CRL.1469), Capan-1 (ATCC: HTB-79), Capan-2 (ATCC: HTB-80) and the Human gastric carcinoma cell line NCI-N87 (ATCC: CRL. 5822); AML-193 (ATCC: CRL.9589), CCRF-CEM (ATCC: CCL-119), DU145 (ATCC: HTB-81), PC-3 (ATCC: CRL.1435), A-431 (ATCC: CRL.1555), HT-29 (ATCC: HTB-38), A-172 (ATCC: CRL.1620), NCI-H358 (ATCC: CRL.5807), A549 (ATCC: CCL-185), Colo-205 (ATCC: CCL-222), MDA-MB-231 (ATCC: HTB-26), OVCAR-3 (ATCC: HTB-161), OV-90 (ATCC: CRL.11732), OE19 (Sigma: 96071721), RT 112/84 (Sigma: 85061106).
(§3) On the day prior to adding compounds, HCC1954 AsPC-1, BxPC-3, HPAF-II, MiaPaCa2, PANC-1, Capan-1, Capan-2 and NCI-N87 cells were added to opaque-walled 96-well tissue culture-treated microtiter plates using complete growth medium at a density of 2500 cells/100 microlitre (uL) of medium. These adherant cell lines cells were incubated for one night at 37° C./5% CO2 to allow the cells to attach to the microtiter plate surface. On the day that compounds were added, Jurkat cells are added to separate 96-well microtiter plates at 2500 cells/100 uL using the same growth medium as HCC1954. Compound were first serially diluted using dimethyl sulfoxide, and then the prepared dilutions are added to complete growth medium at five-times the final concentration—compounds were then titrated 1:3, eight steps. A control with no compound (growth medium alone) was included on each microtiter plate in sextuplicate. The prepared compounds titrations were added (twenty-five uL/well) in triplicate. The cells and compound titrations were incubated at 37° C./5% CO2 for three nights. After the incubation, cell viability is measured using CellTiter-Glo® reagent by adding thirty uL of prepared CellTiter-Glo® to each assay well. The assay is incubated for at least twenty minutes in the dark prior to measuring emitted luminescence using a microplate luminometer (500 ms integration time). The collected relative luminescence units (RLU) are converted to % cytotoxicity using the Growth medium alone control mentioned above (% Cytotoxicity=1−[Well RLU/average medium alone control RLU]).
(§4) GraphPad Prism was used for generation of EC50 values using three parameter non-linear regression curve fitting.

[2] = test system: AsPC-1; type: cell-based; conditions: Homo sapiens, ASPC1, Table 5, read-out: Cytotoxicity (EC50) AsPC-1
From the text: as §1, §2, §3, §4

[3] = test system: PANC-1; type: cell-based; conditions: Homo sapiens, Table 5, read-out: Cytotoxicity (EC50) PANC-1
From the text: as §1, §2, §3, §4

[4] = test system: BxPC-3; type: cell-based; conditions: Homo sapiens, Table 5, read-out: Cytotoxicity (EC50) BxPC-3
From the text: as §1, §2, §3, §4

[5] = test system: MiaPaCa2; type: cell-based; conditions: Homo sapiens, MIA PaCa-2; Table 5; MinPaCa2; read-out: Cytotoxicity (EC50) MinPaCa2
From the text: as §1, §2, §3, §4

[6] = test system: Jurkat cells; type: cell-based, Human
Procedure, shortened: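 HCC1954 plated at 2500 cells/100 uL and attached overnight; Jurkat plated at 2500 cells/100 uL on the day of dosing. Cells exposed to 8-step 1:3 compound titrations for three nights at 37° C./5% CO2, in triplicate. CellTiter-Glo luminescence converted to % cytotoxicity versus medium-only control; EC50 by three-parameter nonlinear regression.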

[7] = test system: HCC1954 cells; type: cell-based; conditions: Homo sapiens
From the text: as §2, §3, §4

[8] = Homo sapiens, Jurkat, Table 3, Cytotoxicity of Compounds on Jurkat Cells, read-out: EC50
[9] = HCC1954, Table 4, Cytotoxicity of Compounds on HCC-1954 Cells, read-out: EC50
[10] = Homo sapiens, Jurkat, Table 6, Compound Cytotoxicity on Jurkat, read-out: EC50

## CN[C@H](C(=O)N[C@H](C(=O)N(C)[C@H](/C=C(\C)C(=O)NS(=O)(=O)Cc1ccc(CN)cc1)C(C)C)C(C)(C)C)C(C)(C)c1ccccc1 [Compound 77, (S,E)-N-(4-(aminomethyl)benzylsulfonyl)-2,5-dimethyl-4-((S)—N,3,3-trimethyl-2-((S)-3-methyl-2-(methylamino)-3-phenylbutanamido)butanamido)hex-2-enamide]
[1]
  EC50: 17200 pM
[2]
  EC50: 15500 pM
[3]
  EC50: 97200 pM
[4]
  EC50: 36500 pM
[5]
  EC50: 94300 pM

## CN[C@H](C(=O)N[C@H](C(=O)N(C)[C@H](/C=C(\C)C(=O)NS(=O)(=O)c1ccc(N)cc1)C(C)C)C(C)(C)C)C(C)(C)c1ccccc1 [Compound 24, (S,E)-N-(4-aminophenylsulfonyl)-2,5-dimethyl-4-((S)—N,3,3-trimethyl-2-((S)-3-methyl-2-(methylamino)-3-phenylbutanamido)butanamido)hex-2-enamide]
[1]
  EC50: 396 pM
[2]
  EC50: 586 pM
[3]
  EC50: 2180 pM
[4]
  EC50: 270 pM
[5]
  EC50: 566 pM
[6]; [8]
  EC50: 70 pM

## CN[C@H](C(=O)N[C@H](C(=O)N(C)[C@H](/C=C(\C)C(=O)NS(=O)(=O)Cc1ccc(NC(=O)C(F)(F)F)cc1)C(C)C)C(C)(C)C)C(C)(C)c1ccccc1 [Compound 79, (S,E)-2,5-dimethyl-N-(4-(2,2,2-trifluoroacetamido)benzylsulfonyl)-4-((S)—N,3,3-trimethyl-2-((S)-3-methyl-2-(methylamino)-3-phenylbutanamido)butanamido)hex-2-enamide]
[6]; [8]
  EC50: 386 pM
[7]; [9]
  EC50: 241 pM

## CN[C@H](C(=O)N[C@H](C(=O)N(C)[C@H](/C=C(\C)C(=O)NS(C)(=O)=O)C(C)C)C(C)(C)C)C(C)(C)c1ccccc1 [Compound E, (S,E)-2,5-dimethyl-N-(methylsulfonyl)-4-((S)—N,3,3-trimethyl-2-((S)-3-methyl-2-(methylamino)-3-phenylbutanamido)butanamido)hex-2-enanmide]
[6]; Homo sapiens, Jurkat, Table 1, Jurkat cells (HER2−), three nights, read-out: Jurkat cells (HER2−) EC50
  EC50: 1670 pM
[6]; Homo sapiens, Jurkat, Table 2, Jurkat, read-out: Jurkat EC50
  EC50: 1670 pM
[6]; [8]
  EC50: 1670 pM
[7]; [9]
  EC50: 790 pM
[7]; Table 1, HCC1954 cells (HER2+), three nights, read-out: HCC1954 cells (HER2+) EC50
  EC50: 790 pM
[7]; Table 2, HCC1954, read-out: HCC1954 EC50
  EC50: 790 pM

## CN[C@H](C(=O)N[C@H](C(=O)N(C)[C@H](/C=C(\C)C(=O)NS(=O)(=O)Cc1ccc(N)cc1)C(C)C)C(C)(C)C)C(C)(C)c1ccccc1 [Compound 80, (S,E)-N-(4-aminobenzylsulfonyl)-2,5-dimethyl-4-((S)—N,3,3-trimethyl-2-((S)-3-methyl-2-(methylamino)-3-phenylbutanamido)butanamido)hex-2-enamide]
[6]; [8]
  EC50: 389 pM
[7]; [9]
  EC50: 207 pM

## C/C(=C\[C@H](C(C)C)N(C)C(=O)[C@@H](NC(=O)[C@@H]1CCCCN1C(C)C)C(C)(C)C)C(=O)NS(=O)(=O)CCCS [Compound 115, (S)-1-isopropyl-N—((S)-1-(((S,E)-6-(3-mercaptopropylsulfonamido)-2,5-dimethyl-6-oxohex-4-en-3-yl)(methyl)amino)-3,3-dimethyl-1-oxobutan-2-yl)piperidine-2-carboxamide]
[6]; [8]
  EC50: 36000 pM
[7]; [9]
  EC50: 172000 pM

## CN[C@H](C(=O)N[C@H](C(=O)N(C)[C@H](/C=C(\C)C(=O)NS(=O)(=O)Cc1ccc(Br)cc1)C(C)C)C(C)(C)C)C(C)(C)c1ccccc1 [Compound 68, (S,E)-N-(4-bromobenzylsulfonyl)-2,5-dimethyl-4-((S)—N,3,3-trimethyl-2-((S)-3-methyl-2-(methylamino)-3-phenylbutanamido)butanamido)hex-2-enamide]
[6]; [10]
  EC50: 337 pM

## CN[C@H](C(=O)N[C@H](C(=O)N(C)[C@H](/C=C(\C)C(=O)NS(=O)(=O)Cc1ccccc1)C(C)C)C(C)(C)C)C(C)(C)c1ccc(-c2ccc(OC)cc2)cc1 [Compound 88, (S,E)-N-(benzylsulfonyl)-4-((S)-2-((S)-3-(4′-methoxybiphenyl-4-yl)-3-methyl-2-(methylamino)butanamido)-N,3,3-trimethylbutanamido)-2,5-dimethylhex-2-enamide]
[6]; [10]
  EC50: 641 pM

## CN[C@H](C(=O)N[C@H](C(=O)N(C)[C@H](/C=C(\C)C(=O)NS(=O)(=O)NCc1ccccc1F)C(C)C)C(C)(C)C)C(C)(C)c1ccccc1 [Compound 26, (S,E)-N—(N-(2-fluorobenzyl)sulfamoyl)-2,5-dimethyl-4-((S)—N,3,3-trimethyl-2-((S)-3-methyl-2-(methylamino)-3-phenylbutanamido)butanamido)hex-2-enamide]
[6]; [8]
  EC50: 105 pM

## CN[C@H](C(=O)N[C@H](C(=O)N(C)[C@H](/C=C(\C)C(=O)NS(=O)(=O)Cc1cccc([N+](=O)[O-])c1)C(C)C)C(C)(C)C)C(C)(C)c1ccccc1 [Compound 70, (S,E)-2,5-dimethyl-N-(3-nitrobenzylsulfonyl)-4-((S)—N,3,3-trimethyl-2-((S)-3-methyl-2-(methylamino)-3-phenylbutanamido)butanamido)hex-2-enamide]
[6]; [10]
  EC50: 856 pM

## CN[C@H](C(=O)N[C@H](C(=O)N(C)[C@H](/C=C(\C)C(=O)NS(=O)(=O)c1ccc(C2(N)CC2)cc1)C(C)C)C(C)(C)C)C(C)(C)c1ccccc1 [Compound 63, (S,E)-N-(4-(1-aminocyclopropyl)phenylsulfonyl)-2,5-dimethyl-4-((S)—N,3,3-trimethyl-2-((S)-3-methyl-2-(methylamino)-3-phenylbutanamido)butanamido) hex-2-enamide]
[1]
  EC50: 826 pM
[2]
  EC50: 970 pM
[3]
  EC50: 4000 pM
[4]
  EC50: 697 pM
[5]
  EC50: 1020 pM

## CN[C@H](C(=O)N[C@H](C(=O)N(C)[C@H](/C=C(\C)C(=O)NS(=O)(=O)Cc1ccccc1C#N)C(C)C)C(C)(C)C)C(C)(C)c1ccccc1 [Compound 105, (S,E)-N-(2-cyanobenzylsulfonyl)-2,5-dimethyl-4-((S)—N,3,3-trimethyl-2-((S)-3-methyl-2-(methylamino)-3-phenylbutanamido)butanamido)hex-2-enamide]
[6]; [10]
  EC50: 731 pM
[6]; Table 6, Compound Cytotoxicity on Jurkat, read-out: EC50
  EC50: 753 pM

## CN[C@H](C(=O)N[C@H](C(=O)N(C)[C@H](/C=C(\C)C(=O)NS(=O)(=O)Cc1ccccc1)C(C)C)C(C)(C)C)C(C)(C)c1ccc(OCCSC(C)=O)cc1 [Compound 95, S-2-(4-((S)-4-((S)-1-(((S,E)-2,5-dimethyl-6-oxo-6-(benzylsulfonamido)hex-4-en-3-yl)(methyl)amino)-3,3-dimethyl-1-oxobutan-2-ylamino)-2-methyl-3-(methylamino)-4-oxobutan-2-yl)phenoxy)ethylethanethioate]
[6]; [10]
  EC50: 288 pM
